Values of other authors as cited in US10675364B2, “Rhodol fluorophores for near-infrared imaging” (The Board of Trustees of the Leland Stanford Junior …, priority 2015, dated 2020).

Settings: highly sensitive to pH in the physiological range

## O=C1OC2(c3ccc(O)cc3Oc3cc(O)ccc32)c2ccccc21 [fluorescein]
  pKa: 6.3
